The structures appear in SMILES notation. Where two headings read alike, the source gives them in different places.

In one assay the target is CDK4/cyclin D1 (Homo sapiens (Human), UniProt P11802). Nature of the assay: CDK4/cyclin D1 enzymatic activity assay (TR-FRET, phosphorylation of pRb at Ser780). In kind it is biochemical. Put shortly: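 Phosphorylation at pRb Ser780, detected by TR-FRET, gave IC50s and kinetics. Enzyme: baculovirus/Sf21-expressed human CDK4/cyclin D1. ATP at 3 μM initiated the reaction; EDTA (pH 8.0) stopped it after 60 min at 22° C.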
Sequence of CDK4/cyclin D1 (P11802 whole entry): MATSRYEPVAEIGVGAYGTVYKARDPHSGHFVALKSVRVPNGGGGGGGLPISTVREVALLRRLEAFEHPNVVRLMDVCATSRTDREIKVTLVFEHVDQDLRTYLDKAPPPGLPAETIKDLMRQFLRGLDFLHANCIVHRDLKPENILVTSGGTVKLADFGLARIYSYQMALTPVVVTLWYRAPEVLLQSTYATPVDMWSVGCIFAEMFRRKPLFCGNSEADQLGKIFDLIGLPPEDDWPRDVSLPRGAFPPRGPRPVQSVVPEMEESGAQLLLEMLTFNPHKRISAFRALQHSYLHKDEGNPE
Sequence of CDK4/cyclin D1 (P24385 whole entry partner): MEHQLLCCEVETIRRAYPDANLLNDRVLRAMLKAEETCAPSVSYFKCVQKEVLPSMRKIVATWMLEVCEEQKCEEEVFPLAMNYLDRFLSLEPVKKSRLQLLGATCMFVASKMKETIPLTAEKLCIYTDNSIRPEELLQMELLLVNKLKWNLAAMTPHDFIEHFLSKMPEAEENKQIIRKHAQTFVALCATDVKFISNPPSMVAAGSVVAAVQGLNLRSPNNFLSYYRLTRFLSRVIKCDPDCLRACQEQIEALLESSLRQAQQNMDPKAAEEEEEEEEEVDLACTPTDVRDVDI
For orientation: Time-resolved FRET reads energy transfer from a long-lived donor to a nearby acceptor.

For assay [1], the system named is phosphorylation of pRb at the Ser780 site in JeKo-1 mantle cell lymphoma cells. As to the kind of experiment: CDK4 cellular assay: ELISA of pRb phosphorylation at Ser780 in JeKo-1 cells. In kind it is cell-based. For orientation: In an ELISA, binding on a coated surface is turned into a signal by an enzyme label.
For the next assay, the target named is CDK1/cyclin B (Homo sapiens (Human), UniProt P06493). Nature of the assay: CDK1/cyclin B enzymatic activity assay (IMAP-FP). The conditions noted are these: 100 nM Tamra Histone-H1 peptide, 20 μM ATP, 120 min at room temperature, read-out: Biochemical CDK1 enzyme IC50. In kind it is biochemical. The text has this: CDK1/Cyclin B Enzymatic Activity Assay
Sequence of CDK1/cyclin B (P06493 whole entry, species assumed): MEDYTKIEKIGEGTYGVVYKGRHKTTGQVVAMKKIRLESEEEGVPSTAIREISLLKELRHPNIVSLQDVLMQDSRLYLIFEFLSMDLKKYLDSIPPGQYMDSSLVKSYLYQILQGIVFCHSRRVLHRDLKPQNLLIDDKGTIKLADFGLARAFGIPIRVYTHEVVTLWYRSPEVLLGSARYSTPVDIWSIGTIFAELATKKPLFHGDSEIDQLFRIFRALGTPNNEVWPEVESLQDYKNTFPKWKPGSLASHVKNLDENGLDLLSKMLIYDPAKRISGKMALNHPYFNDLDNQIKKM
Sequence of CDK1/cyclin B (P14635 whole entry partner, species assumed): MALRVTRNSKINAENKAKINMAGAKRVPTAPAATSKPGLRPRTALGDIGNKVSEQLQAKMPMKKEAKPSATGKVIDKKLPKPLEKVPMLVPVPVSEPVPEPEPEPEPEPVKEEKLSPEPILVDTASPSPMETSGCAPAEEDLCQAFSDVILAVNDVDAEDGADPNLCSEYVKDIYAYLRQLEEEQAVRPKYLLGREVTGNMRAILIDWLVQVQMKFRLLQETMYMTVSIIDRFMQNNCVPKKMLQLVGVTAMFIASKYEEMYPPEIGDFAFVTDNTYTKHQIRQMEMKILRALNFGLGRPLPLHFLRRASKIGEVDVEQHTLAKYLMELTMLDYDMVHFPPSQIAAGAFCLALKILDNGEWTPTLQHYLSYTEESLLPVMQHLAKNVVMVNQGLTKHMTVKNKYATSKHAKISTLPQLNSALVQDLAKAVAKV
A 384-well microtiter IMAP-FP™ (Molecular Devices Trade Mark Technology) endpoint assay was used for CDK1/cyclin B kinase activity measurements. The same assay was used for IC50 determination of small molecule inhibitors.

[2] abbreviates: 0.3 nM CDK4/cyclin D1, 150 nM biotin-pRb (773-924), 3 μM ATP, 60 min at 22° C.; read-out: Biochemical CDK4 enzyme IC50.
Where [3] appears, read: Homo sapiens, JeKo-1, JeKo-1 cells, p-pRb % inhibition adjusted with total pRb levels, read-out: Normalized cellular ppRb inhibition IC50.
[4] abbreviates: Homo sapiens, JeKo-1, JeKo-1 cells, p-pRb Ser780 ELISA, non-normalized, read-out: Cellular ppRb inhibition IC50.
Setting [5] is: Homo sapiens, JeKo-1 cells, p-pRb % inhibition adjusted with total pRb levels, read-out: Normalized cellular ppRb inhibition IC50.
Setting [6] is: Homo sapiens, JeKo-1 cells, p-pRb Ser780 ELISA, non-normalized, read-out: Cellular ppRb inhibition IC50.

Usually IC50 stands for the point on the concentration scale where inhibition reaches its midpoint. With `CN(C)C(=O)c1cc2cnc(Nc3ccc(N4CC5CCC(CC4=O)N5)cn3)nc2n1-c1ccccc1` (centres unmarked) [Example 128, 2-[5-(4-oxo-3,9-diaza-bicyclo[4.2.1]non-3-yl)-pyridin-2-ylamino]-7-phenyl-7H-pyrrolo[2,3-d]pyrimidine-6-carboxylic acid dimethylamide], the IC50 was 9 nM on CDK4/cyclin D1 (setting [2]), 140 nM in assay [1] (setting [3]), 81 nM in assay [1] (setting [4]) and over 15000 nM on CDK1/cyclin B ([…] CDK1/cyclin B).
On to `CN(C)C(=O)c1cc2cnc(Nc3ccc(C(=O)N4C[C@@H]5C[C@H]4C[C@H]5O)cn3)nc2n1C1CCCC1` [Example 31, 7-cyclopentyl-2-(5-((1S,4S,5R)-5-hydroxy-2-azabicyclo[2.2.1]heptane-2-carbonyl)pyridin-2-ylamino)-N,N-dimethyl-7H-pyrrolo[2,3-d]pyrimidine-6-carboxamide], for which the IC50 on CDK4/cyclin D1 (setting [2]) was 69 to 81 nM; in assay [1] (setting [5]) it was 497 to 591 nM; in assay [1] (setting [6]) it was 252 to 352 nM; at CDK1/cyclin B ([…] CDK1/cyclin B) it was over 15000 nM.
As for `CN(C)C(=O)c1cc2cnc(Nc3ccc(N4CC5(CCNCC5)OC4=O)cn3)nc2n1C1CCCC1` [Example 119, 7-cyclopentyl-N,N-dimethyl-2-(5-(2-oxo-1-oxa-3,8-diazaspiro[4.5]decan-3-yl)pyridin-2-ylamino)-7H-pyrrolo[2,3-d]pyrimidine-6-carboxamide], the IC50 was 12 nM on CDK4/cyclin D1 (setting [2]), 72 to 83 nM in assay [1] (setting [5]), 26 to 47 nM in assay [1] (setting [6]) and over 15000 nM on CDK1/cyclin B ([…] CDK1/cyclin B).
As to `CN(C)C(=O)c1cc2cnc(Nc3ccc(N4C[C@@]5(CCCNCC5)OC4=O)cn3)nc2n1C1CCCC1` [Example 105, 7-Cyclopentyl-2-[5-((S)-2-oxo-1-oxa-3,8-diaza-spiro[4.6]undec-3-yl)-pyridin-2-ylamino]-7H-pyrrolo[2,3-d]pyrimidine-6-carboxylic acid dimethylamide], the IC50 was 12 nM at CDK4/cyclin D1 (setting [2]), 100 nM in assay [1] (setting [5]), 61 nM in assay [1] (setting [6]) and over 15000 nM at CDK1/cyclin B ([…] CDK1/cyclin B).
As for `CN(C)C(=O)c1cc2cnc(Nc3ccc(C(=O)N4CC5CNCC(C4)O5)cn3)nc2n1C1CCCC1` [Example 47, 7-Cyclopentyl-2-[5-(9-oxa-3,7-diaza-bicyclo[3.3.1]nonane-3-carbonyl)-pyridin-2-ylamino]-7H-pyrrolo[2,3-d]pyrimidine-6-carboxylic acid dimethylamide], the IC50 on CDK4/cyclin D1 (setting [2]) is 30 nM; in assay [1] (setting [5]), 352 nM; in assay [1] (setting [6]), 315 nM; at CDK1/cyclin B ([…] CDK1/cyclin B), over 15000 nM.
Take `CN(C)C(=O)c1cc2cnc(Nc3ccc(C(=O)N4C[C@H]5CNC[C@@H](C4)C5O)cn3)nc2n1C1CCCCCC1` (stereo partly drawn) [Example 2, 7-cycloheptyl-2-(5-((1R,5S)-9-hydroxy-3,7-diazabicyclo[3.3.1]nonane-3-carbonyl)pyridin-2-ylamino)-N,N-dimethyl-7H-pyrrolo[2,3-d]pyrimidine-6-carboxamide]: the concentration for half-maximal inhibition (IC50) at CDK4/cyclin D1 (setting [2]) was 5 nM; in assay [1] (setting [3]), 84 nM; in assay [1] (setting [4]), 66 nM; at CDK1/cyclin B ([…] CDK1/cyclin B), over 15000 nM.
For the molecule `CN(C)C(=O)c1cc2cnc(Nc3ccc(N4C[C@@]5(CCCNC5)OC4=O)cn3)nc2n1C1CCCC1` [Example 109, 7-Cyclopentyl-2-[5-((S)-2-oxo-1-oxa-3,7-diaza-spiro[4.5]dec-3-yl)-pyridin-2-ylamino]-7H-pyrrolo[2,3-d]pyrimidine-6-carboxylic acid dimethylamide], the half-inhibitory concentration (IC50) at CDK4/cyclin D1 (setting [2]) was 12 nM; in assay [1] (setting [5]), 75 nM; in assay [1] (setting [6]) it was 48 nM; on CDK1/cyclin B ([…] CDK1/cyclin B), over 15000 nM.
Regarding `CN(C)C(=O)c1cc2cnc(Nc3ccc(N4C[C@H]5CNC[C@H]5CC4=O)cn3)nc2n1C1CCCC1` (stereo in doubt) [Example 91, 7-cyclopentyl-N,N-dimethyl-2-(5-(cis-6-oxotetrahydro-1H-pyrrolo[3,4-c]pyridin-5(6H,7H,7aH)-yl)pyridin-2-ylamino)-7H-pyrrolo[2,3-d]pyrimidine-6-carboxamide], the half-maximal inhibitory concentration (IC50) on CDK4/cyclin D1 (setting [2]) is 5 to 7 nM; in assay [1] (Homo sapiens, JeKo-1, read-out: Cellular ppRb inhibition IC50) it was 10 to 27 nM; in assay [1] (Homo sapiens, JeKo-1, read-out: Normalized cellular ppRb inhibition IC50) it was 22 to 74 nM; on CDK1/cyclin B (0.25 nM CDK1/cyclin B) it was 13300 to 14900 nM.
In the case of `CC(=O)N1[C@@H]2CC[C@H]1CN(c1ccc(Nc3ncc4cc(C(=O)N(C)C)n(C5CCCC5)c4n3)nc1)C(=O)C2` [Example 139, 2-(5-((1S,6R)-9-acetyl-4-oxo-3,9-diazabicyclo[4.2.1]nonan-3-yl)pyridin-2-ylamino)-7-cyclopentyl-N,N-dimethyl-7H-pyrrolo[2,3-d]pyrimidine-6-carboxamide], the IC50 is 114 nM on CDK4/cyclin D1 (setting [2]), 638 nM in assay [1] (setting [3]), 605 nM in assay [1] (setting [4]) and over 15000 nM at CDK1/cyclin B ([…] CDK1/cyclin B).
As for `CN(C)C(=O)c1cc2cnc(Nc3ccc(N4C[C@H]5CC[C@@H](CC4=O)N5CC(F)(F)F)cn3)nc2n1C1CCCC1` [Example 144, 7-cyclopentyl-N, N-dimethyl-2-(5-((1R,6S)-4-oxo-9-(2,2,2-trifluoroethyl)-3,9-diazabicyclo[4.2.1]nonan-3-yl)pyridin-2-ylamino)-7H-pyrrolo[2,3-d]pyrimidine-6-carboxamide], the IC50 on CDK4/cyclin D1 (setting [2]) is 19 nM; in assay [1] (setting [5]), 49 nM; in assay [1] (setting [6]) it was 31 nM; at CDK1/cyclin B ([…] CDK1/cyclin B), over 15000 nM.
The matching figures for `CN(C)C(=O)c1cc2cnc(Nc3ccc(N4C[C@@H]5CC[C@H](CC4=O)N5S(C)(=O)=O)cn3)nc2n1C1CCCC1` [Example 137, 7-cyclopentyl-N,N-dimethyl-2-(5-((1S,6R)-9-(methylsulfonyl)-4-oxo-3,9-diazabicyclo[4.2.1]nonan-3-yl)pyridin-2-ylamino)-7H-pyrrolo[2,3-d]pyrimidine-6-carboxamide]: 62 nM, 150 nM, 155 nM and over 15000 nM.
Take `CN(C)C(=O)c1cc2cnc(Nc3ccc(N4CCN5CCCCC5C4=O)cn3)nc2n1C1CCCCC1` (centres unmarked) [Example 100, 7-Cyclohexyl-2-[5-(1-oxo-octahydro-pyrido[1,2-a]pyrazin-2-yl)-pyridin-2-ylamino]-7H-pyrrolo[2,3-d]pyrimidine-6-carboxylic acid dimethylamide]: the half-inhibitory concentration (IC50) is 35 nM at CDK4/cyclin D1 (setting [2]), 218 nM in assay [1] (setting [5]), 188 nM in assay [1] (setting [6]) and over 15000 nM on CDK1/cyclin B ([…] CDK1/cyclin B).
Take `CN(C)C(=O)c1cc2cnc(Nc3ccc(C(=O)N4C[C@H]5CNC[C@@H](C4)C5O)cn3)nc2n1C1CCCC1` (stereo partly drawn) [Example 1, 7-Cyclopentyl-2-(5-((1R,5S)-9-hydroxy-3,7-diazabicyclo[3.3.1]nonane-3-carbonyl)pyridin-2-ylamino)-N,N-dimethyl-7H-pyrrolo[2,3-d]pyrimidine-6-carboxamide]: the IC50 is 17 nM at CDK4/cyclin D1 (setting [2]), 538 nM in assay [1] (setting [5]), 364 nM in assay [1] (setting [6]) and over 15000 nM at CDK1/cyclin B ([…] CDK1/cyclin B).
With `CN(C)C(=O)c1cc2cnc(Nc3ccc(C(=O)N4CC5CCC(C4)N5)nn3)nc2n1C1CCCC1` [Example 73, 7-Cyclopentyl-2-[6-(3,8-diaza-bicyclo[3.2.1]octane-3-carbonyl)-pyridazin-3-ylamino]-7H-pyrrolo[2,3-d]pyrimidine-6-carboxylic acid dimethylamide], the IC50 is 45 to 84 nM on CDK4/cyclin D1 (read-out: Biochemical CDK4 enzyme IC50; 0.3 nM CDK4/cyclin D1, 150 nM biotin-pRb (773-924), 3 μM ATP, 60 min at 22° C.); 139 to 783 nM in assay [1] (JeKo-1 cells, p-pRb % inhibition adjusted with total pRb levels, read-out: Normalized cellular ppRb inhibition IC50); 75 to 259 nM in assay [1] (JeKo-1 cells, p-pRb Ser780 ELISA, non-normalized, read-out: Cellular ppRb inhibition IC50); over 15000 nM at CDK1/cyclin B ([…] CDK1/cyclin B).
Regarding `CN(C)C(=O)c1cc2cnc(Nc3ccc(C(=O)N4CC5CCC(C4)N5)cn3)nc2n1C1CCCCCC1` [Example 4, 2-(5-(3,8-diazabicyclo[3.2.1]octane-3-carbonyl)pyridin-2-ylamino)-7-cycloheptyl-N,N-dimethyl-7H-pyrrolo[2,3-d]pyrimidine-6-carboxamide], the IC50 on CDK4/cyclin D1 (setting [2]) was determined as 4 nM; in assay [1] (setting [3]), 10 nM; in assay [1] (setting [4]) it was 9 nM; at CDK1/cyclin B ([…] CDK1/cyclin B), 7060 nM.
With `CN(C)C(=O)c1cc2cnc(Nc3ccc(C(=O)N4CC5CCC(C4)C5N(C)C)cn3)nc2n1C1CCCC1` (centres unmarked) [Example 34, 7-cyclopentyl-2-(5-(8-(dimethylamino)-3-azabicyclo[3.2.1]octane-3-carbonyl)pyridin-2-ylamino)-N,N-dimethyl-7H-pyrrolo[2,3-d]pyrimidine-6-carboxamide], the IC50 on CDK4/cyclin D1 (setting [2]) was 22 nM; in assay [1] (setting [5]), 140 nM; in assay [1] (setting [6]), 75 nM; at CDK1/cyclin B ([…] CDK1/cyclin B), over 15000 nM.
The matching figures for `CN1CC2(C)CN(C(=O)c3ccc(Nc4ncc5cc(C(=O)N(C)C)n(C6CCCC6)c5n4)nc3)CC(C)(C1)C2O` (centres unmarked) [Example 39, 7-Cyclopentyl-2-(5-(9-hydroxy-1,5,7-trimethyl-3,7-diazabicyclo[3.3.1]nonane-3-carbonyl)pyridin-2-ylamino)-N,N-dimethyl-7H-pyrrolo[2,3-d]pyrimidine-6-carboxamide]: 77 nM, 136 nM, 79 nM and over 15000 nM.
